What was measured:
Format in all cases: in vivo
[1] = tested on: common lambsquarters (Chenopodium album L.); assay: Test Example 24: pot, soil treatment, metobromuron + trifluralin; settings: soil, read-out: Growth inhibition rate of common lambsquarters (%) Measured value
Text: (§1) When the herbicidal activity in a case where two active ingredients are combined, is larger than the simple sum of the respective herbicidal activities of the two active ingredients (the expected activity), it is called a synergistic effect. The activity expected by the combination of two active ingredients can be calculated as follows (Colby S. R., “Weed”, vol. 15, p. 20-22, 1967). E=α+β−(α×β[…]) where α: growth inhibition rate when treated with x (g/ha) of herbicide X, • β: growth inhibition rate when treated with y (g/ha) of herbicide Y, • E: growth inhibition rate expected when treated with x (g/ha) of herbicide X and y (g/ha) of herbicide Y.
(§2) On the 19th day after treatment, the state of growth of barnyardgrass was visually observed and evaluated in accordance with the following standards. The growth inhibition rate (%) [measured value] and the growth inhibition rate (%) [calculated value] calculated by the Colby's method, are shown in Table 2.
(§3) Growth inhibition rate (%)=inhibition rate) (%) of 0 (equivalent to the non-treated area) to 100 (complete kill)
(§4) Soil was put into a 1/300,000 ha pot, and seeds of common lambsquarters (Chenopodium album L.) were sown. On the day after seeding, predetermined amounts of SC containing metobromuron as active ingredient (same as in Test Example 1) and EC containing trifluralin as active ingredient (same as in Test Example 4) were diluted with water corresponding to 1,000 L per hectare and applied for soil treatment.
On the 21st day after treatment, the state of growth of common lambsquarters was visually observed and evaluated in the same manner as in Test Example 1.

[2] = tested on: black nightshade (Solanum nigrum L.); assay: Test Example 14: pot, soil treatment, metobromuron + pyroxasulfone; settings: soil, read-out: Growth inhibition rate of black nightshade (%) Measured value
Text: as §1, §2, §3
as §4, with “black nightshade (Solanum nigrum” for “common lambsquarters (Chenopodium album”, “Prior to germination of black nightshade,” for “On the day after seeding,”, “WG” for “EC”, “pyroxasulfone” for “trifluralin”, “13)” for “4)”
On the 12th day after treatment, the state of growth of black nightshade was visually observed and evaluated in the same manner as in Test Example 1.

[3] = tested on: black nightshade (Solanum nigrum L.); assay: Test Example 27: pot, soil treatment, metobromuron + flufenacet; settings: soil, read-out: Growth inhibition rate of black nightshade (%) Measured value
Text: as §1, §2, §3
as §4, with “black nightshade (Solanum nigrum” for “common lambsquarters (Chenopodium album”, “prosulfocarb” for “trifluralin”, “(trade name: BOXER NYUZAI, manufactured by Syngenta)” for “(same as in Test Example 4)”
On the 21st day after treatment, the state of growth of black nightshade was visually observed and evaluated in the same manner as in Test Example 1.
The test was carried out in the same manner as in Test Example 26 except that EC containing prosulfocarb as active ingredient was changed to SC containing flufenacet as active ingredient (trade name: Cadou, manufactured by Bayer CropScience), to obtain the results as shown in Table 28.

[4] = tested on: spotted knotweed (Polygonum lapathifolium L.); assay: Test Example 2: soybean field, soil treatment, metobromuron + S-metolachlor; settings: Persicaria lapathifolia, soil, read-out: Growth inhibition rate of spotted knotweed (%) Measured value
Text: as §1, §2
(§5) Growth inhibition rate (%)=inhibition rate) (%) of 0 (equivalent to the non-treated area) to 100 (complete kill) […]
On the 50th day after treatment, the state of growth of spotted knotweed was visually observed and evaluated in the same manner as in Test Example 1.

[5] = tested on: large crabgrass (Diqitaria sanquinalis L.); assay: Test Example 11: corn field, foliar treatment, metobromuron + nicosulfuron; settings: Digitaria sanguinalis, foliar, read-out: Growth inhibition rate of large crabgrass (%) Measured value
Text: as §1, §2, §5
On the 30th day after treatment, the state of growth of large crabgrass was visually observed and evaluated in the same manner as in Test Example 1.

[6] = tested on: barnyardgrass (Echinochloa crus-galli L.); assay: Test Example 18: pot, soil treatment, metobromuron + chlorpropham; settings: soil, read-out: Growth inhibition rate of barnyardgrass (%) Measured value
Text: as §1, §2, §3
(§6) Soil was put into a 1/300,000 ha pot, and seeds of barnyardgrass (Echinochloa crus-galli L.) were sown. […]
On the 26th day after treatment, the state of growth of barnyardgrass was visually observed and evaluated in the same manner as in Test Example 1.

[7] = tested on: barnyardgrass (Echinochloa crus-galli L.); assay: Test Example 15: pot, soil treatment, metobromuron + chlorpropham; settings: soil, read-out: Growth inhibition rate of barnyardgrass (%) Measured value
Text: as §1, §2, §3, §6
On the 21st day after treatment, the state of growth of barnyardgrass was visually observed and evaluated in the same manner as in Test Example 1.

[8] = tested on: common lambsquarters (Chenopodium album L.); assay: Test Example 30: pot, soil treatment, metobromuron + thiobencarb; settings: soil, read-out: Growth inhibition rate of common lambsquarters (%) Measured value
Text: as §1, §2, §3
as §4, with “thiobencarb” for “trifluralin”, “(trade name: Saturn NYUZAI, manufactured by KUMIAI CHEMICAL INDUSTRY Co., Ltd.)” for “(same as in Test Example 4)”
On the 20th day after treatment, the state of growth of common lambsquarters was visually observed and evaluated in the same manner as in Test Example 1.

[9] = tested on: barnyardgrass (Echinochloa crus-qalli L.); assay: Test Example 4: soybean field, soil treatment, metobromuron + trifluralin; settings: soil, read-out: Growth inhibition rate of barnyardgrass (%) Measured value
Text: as §1, §2, §5
On the 50th day after treatment, the state of growth of barnyardgrass (Echinochloa crus-qalli L.) which occurred naturally, was visually observed and evaluated in the same manner as in Test Example 1.

SMILES: CON(C)C(=O)Nc1ccc(Br)cc1 [Metobromuron, 3-(4-bromophenyl)-1-methoxy-1-methylurea]
- inhibition at 375 g/ha [1]: 50%
- inhibition at 375 g/ha [2]: 64%
- inhibition at 750 g/ha [2]: 83%
- inhibition at 250 g/ha [3]: 25%
- inhibition at 375 g/ha [3]: 50%
- inhibition at 562.5 g/ha [3]: 68%
- inhibition at 1000 g/ha [4]: 58%
- inhibition at 1000 g/ha [5]: 25%
- inhibition at 188 g/ha [6]: 0%
- inhibition at 1500 g/ha [7]: 72%
- inhibition at 250 g/ha [8]: 78%
- inhibition at 1000 g/ha [9]: 30%

Reference: patent US9993001B2, “Herbicidal composition” (ISHIHARA SANGYO KAISHA, LTD., priority 2014, dated 2018)
